Results from patent US20250213647A1, “CHEMOKINE RECEPTORS AND ALPHA1 ADRENERGIC RECEPTORS/VASOPRESSIN RECEPTORS 1A HETEROMERS AS DRUG TARGETS FOR DISEASE” (UNIVERSITY OF SOUTH FLORIDA, priority 2022, published 2025).

Assays:
[1] = test system: CCR1; test: Chemotaxis assay, THP-1 cells toward CCL23 (CCR1-mediated); type: cell-based, human; conditions: CCL23 10 nM, mean±SE, read-out: IC50 for inhibition of CCR1-mediated chemotaxis
Experimental: (§1) Cell migration was measured employing the Neuroprobe (Gaithersburg, MD, USA) ChemoTx® Disposable Chemotaxis System. A 96-well Boyden-chamber (30 μL/well, 8 μm pores, 1×10^5 pores/cm^2 pore density) was selected for all chemotaxis experiments. Bottom wells of the Boyden-chamber were loaded with 30 μL of test substances at various concentrations. Top wells of the membrane were loaded with 25 μL of THP-1 cells, THP-1_ADRA1B^KO, wild type THP-1 cells after clonal expansion (=control for THP-1_ADRA1B^KO) or freshly isolated monocytes (200 cells/μL). THP-1 cells were suspended in depleted RPMI1640 (0.5% HyClone™ fetal bovine serum, Sigma); Freshly isolated monocytes were suspended in RPMI1640 (0.5% human platelet poor plasma, Sigma). After 3 hours, transmigrated cells were counted utilizing the Cytation 1 plate reader (BioTek) by direct imaging in high contrast bright field (4×) and post-imaging particle analyses with Gen5 (v3.05) Imaging & Microscopy Software (BioTek). The chemotactic index (CI) was calculated as the ratio of cells that transmigrated in the presence versus the absence of the test solutions.

[2] = test system: CXCR4; test: Chemotaxis assay, THP-1 cells toward CXCL12 (CXCR4-mediated); type: cell-based, human; conditions: CXCL12 100 nM, mean±SE, read-out: IC50 for inhibition of CXCR4-mediated chemotaxis
Experimental: as §1

[3] = target: T1, CCR2 (Homo sapiens, UniProt P41597); test: Chemotaxis assay, THP-1 cells toward CCL2 (CCR2-mediated); type: cell-based; design: host or cells: THP-1; conditions: CCL2 10 nM
Experimental: as §1

[4] = test system: CXCR4; conditions: previous observations (Gao, 2018); cited from earlier work
[5] = test system: CR heteromerization partners of α1B/D-ARs (CCR1, CCR2, CXCR4); test: Chemotaxis assay, THP-1 cells, CR heteromerization partners of α1B/D-ARs taken together; type: cell-based, human; conditions: FIG. 17D-17F
Experimental: as §1

[6] = test system: AVPR1A heteromerization partners CCR2, CCR8 and CXCR4; test: Chemotaxis assay, THP-1 cells, AVPR1A heteromerization partners CCR2, CCR8 and CXCR4; type: cell-based; conditions: Homo sapiens, FIG. 13A, 13C, read-out: IC50, inhibition of chemotaxis mediated via CCR2, CCR8 and CXCR4
[7] = target: T1, CCR2; test: Gαi activation assay (TRUPATH BRET), HEK293T cells transfected with CCR2 plus pcDNA3 (CCR2 alone); type: cell-based; conditions: cells transfected with CCR2 alone; 10 μM PE or PT; FIG. 4B, 4E
Experimental: HEK293T cells were plated in a 6-well plate and transfected with 0.2 μg each of Gαi1-Rluc8, Gβ3 and Gγ9-GFP2 (Trupath) together with 0.2 μg of mouse or human CCR2 with either pcDNA3.1 or α1b-AR. One day after transfection, cells were trypsinized and replated to 96-well poly-L lysine precoated plates. After overnight incubation, cells were replaced with 0.1% glucose/PBS. Prolume Purple (NanoLight Tech.) or coelenterazine 400a in a final concentration of 5 μM were added in experiments with human or mouse CCR2, respectively, and incubated at room temperature for 3 min. Ligands at various concentrations were added to cells and incubated at room temperature for 5 min before luminescence was measured at 410 nm and 515 nm. […] The BRET changes were calculated by subtracting the BRET signal of untreated cells.

[8] = test system: THP-1 cells (CCR2-mediated Gαi signaling); test: Cyclic AMP measurement in forskolin-stimulated THP-1 cells; type: cell-based, human; conditions: forskolin-stimulated THP-1 cells; 1 μM PE, 1 μM PT or 100 nM NE; 15 min at 37° C.; FIG. 4G, 4H
Experimental: (§2) Cyclic AMP amounts were measured using the cAMP complete enzyme immunoassay kit, acetylated format (Enzo Life Sciences). 4×10^5 cells were incubated with forskolin/isobutylmethylxanthine (10 μM/0.5 mM final concentrations) in 0.1% BSA/10 mM Hepes-buffered RPMI and treated with CCL2 in the presence or absence of 1 μM PE, 1 μM PT or 100 nM NE at 37° C. for 15 min. The cells were lysed by incubating with 0.1 M HCl at room temperature for 20 min. The cAMP amounts in the lysate supernatant were measured following the manufacturer's instructions.

[9] = target: T1, CCR2; test: BRET assay for β-arrestin recruitment, HEK293T with CCR2-Rluc and β-arrestin-YFP without α1b-AR; type: cell-based; conditions: 10 μM PE, PT or 100 nM INCB3284, FIG. 5C
Experimental: β-arrestin recruitment was measured by BRET, as described (Armando, 2014; Berchiche, 2011). In brief, HEK293T cells were plated in a 6-well plate and transfected with 0.1 μg of CCR2-RluII and 1.9 μg β-arrestin-YFP with 0.1 μg pcDNA3.1 or α1b-AR. One day after transfection, cells were re-plated into 96-well poly-L lysine precoated plates. After overnight incubation, cells were replaced with 0.1% glucose/PBS. Coelenterazine H in a final concentration of 5 μM was added to cells and incubated at room temperature for 3 min. […] The BRET changes were calculated by subtracting the BRET signal of untreated cells.

[10] = test system: CXCR1; test: Chemotaxis assay, THP-1 cells toward CXCL8 (CXCR1-mediated); type: cell-based, human; conditions: CXCL8 10 nM, FIG. 13B
Experimental: as §1

[11] = test system: THP-1_ADRA1B^KO cells; test: Cyclic AMP measurement in forskolin-stimulated THP-1_ADRA1B^KO cells; type: cell-based, human; conditions: 100 nM CCL1, 15 min at 37° C.; FIG. 2B
Experimental: as §2

T1 sequence (P41597 whole entry): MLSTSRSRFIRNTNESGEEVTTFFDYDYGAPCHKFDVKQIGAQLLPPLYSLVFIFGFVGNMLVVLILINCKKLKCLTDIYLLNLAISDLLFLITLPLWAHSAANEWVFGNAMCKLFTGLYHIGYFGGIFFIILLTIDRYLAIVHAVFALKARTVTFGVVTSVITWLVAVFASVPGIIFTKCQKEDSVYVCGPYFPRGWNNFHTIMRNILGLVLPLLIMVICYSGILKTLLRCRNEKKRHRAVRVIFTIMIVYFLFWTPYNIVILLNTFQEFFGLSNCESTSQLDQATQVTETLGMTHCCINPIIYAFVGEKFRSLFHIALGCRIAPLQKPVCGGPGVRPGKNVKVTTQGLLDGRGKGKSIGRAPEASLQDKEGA

COc1ccccc1N1CCN(CCN2C(=O)CC3(CCCC3)CC2=O)CC1 [BMY7378]
IC50 [1]: 10.5 ± 0.91 nM
IC50 [2]: 2.87 ± 0.6 nM
IC50 ([3]; mean±SE, read-out: IC50 for inhibition of CCR2-mediated chemotaxis): 0.93 ± 0.61 nM

COc1cc2nc(N3CCN(C(=O)c4ccco4)CC3)nc(N)c2cc1OC [prazosin]
CXCR4-mediated chemotaxis of primary human vascular smooth muscle cells [4]: inhibit

COc1ccccc1N1CCN(CCCNc2c(C)c(=O)n(C)c(=O)n2C)CC1 [5-Methylurapidil]
CR-mediated chemotaxis (CCR1, CCR2 and CXCR4) [5]: did not affect

Cc1nc2c([nH]1)-c1ccccc1N(C(=O)c1ccc(NC(=O)c3ccccc3-c3ccccc3)cc1)CC2 [Conivaptan]
IC50 [6]: 0.037 to 0.218 nM

NC[C@H](O)c1ccc(O)c(O)c1 [norepinephrine]
effect on CCL2-induced Gαi1 activation [7]: did not affect
effect on the effects of CCL2 on cAMP production [8]: inhibited the effects of CCL2 on cAMP production

COc1ccc(C2(O)CCC(N3CC[C@@H](NC(=O)CNC(=O)c4cccc(C(F)(F)F)c4)C3)CC2)cn1 (stereo partly shown) [INCB3284]
effect on the CCL2-induced BRET signal (CCR2-Rluc / β-arrestin-YFP) [9]: could be inhibited
inhibition of CCL2-induced chemotaxis ([3]; FIG. 23E): more than 95%

NC(=O)CC[C@@H]1NC(=O)[C@H](Cc2ccccc2)NC(=O)[C@H](Cc2ccc(O)cc2)NC(=O)[C@@H](N)CSSC[C@@H](C(=O)N2CCC[C@H]2C(=O)N[C@@H](CCCN=C(N)N)C(=O)NCC(N)=O)NC(=O)[C@H](CC(N)=O)NC1=O [AVP, arginine vasopressin]
chemotaxis mediated by CXCR1 [10]: did not affect

COc1cc2nc(N3CCN(C(=O)c4ccco4)[C@H]4CCCC[C@H]43)nc(N)c2cc1OC (racemic) [cyclazosin]
CXCR4-mediated chemotaxis of primary human vascular smooth muscle cells [4]: inhibit

B1: CCL1: Chemokine (C-C motif) ligand 1, selective agonist of CCR8 (protein, UniProt P22362 24-96, looked up)
C-C motif chemokine 1: KSMQVPFSRCCFSFAEQEIPLRAILCYRNTSSICSNEGLIFKLKRGKEACALDTVGWVQRHRKMLRHCPSKRK
inhibition of forskolin-stimulated cAMP production by CCL1, THP1 vs THP-1_ADRA1B^KO cells [11]: indistinguishable
